In BindingDB's records for doi:10.1016/s0960-894x(01)00014-2 (Rensselaer Polytechnic Institute, 2001):

Experiment: Displacement of [3H]naltrindole from Opioid receptor delta 1 of guinea pig brain membranes
For C[C@H]1C2Cc3ccc(C(=O)Nc4ccccc4)cc3[C@@]1(C)CCN2CC1CC1 [3-cyclopropylmethyl-6,11-dimethyl-1,2,3,4,5,6-hexahydro-2,6-methano-benzo[d]azocine-8-carboxylic acid phenylamide], the Ki was 1400 nM.
Work on C[C@H]1C2Cc3ccc(C#N)cc3[C@@]1(C)CCN2CC1CC1 [(6S,11R)-3-Cyclopropylmethyl-6,11-dimethyl-1,2,3,4,5,6-hexahydro-2,6-methano-benzo[d]azocine-8-carbonitrile] yielded a Ki of 2700 nM.
With C[C@@H]1[C@@H]2Cc3ccc(C(N)=O)cc3[C@]1(C)CCN2CC1CC1 [(6S,11R)-3-Cyclopropylmethyl-6,11-dimethyl-1,2,3,4,5,6-hexahydro-2,6-methano-benzo[d]azocine-8-carboxylic acid amide] the Ki was 570 nM.
C[C@H]1[C@H]2Cc3ccc(C(N)=O)cc3[C@@]1(C)CCN2CC1CC1 [(6S,11R)-3-Cyclopropylmethyl-6,11-dimethyl-1,2,3,4,5,6-hexahydro-2,6-methano-benzo[d]azocine-8-carboxylic acid amide] gave a Ki of 2.6 nM.
In the case of C[C@H]1C2Cc3ccc(C(=O)N(C)C)cc3[C@@]1(C)CCN2CC1CC1 [(6S,11R)-3-Cyclopropylmethyl-6,11-dimethyl-1,2,3,4,5,6-hexahydro-2,6-methano-benzo[d]azocine-8-carboxylic acid dimethylamide], the Ki is reported as > 35000 nM.
Work on COC(=O)c1ccc2c(c1)[C@@]1(C)CCN(CC3CC3)C(C2)[C@@H]1C [(6S,11R)-3-Cyclopropylmethyl-6,11-dimethyl-1,2,3,4,5,6-hexahydro-2,6-methano-benzo[d]azocine-8-carboxylic acid methyl ester] yielded a Ki of 59 nM.
Work on CNC(=O)c1ccc2c(c1)[C@@]1(C)CCN(CC3CC3)C(C2)[C@@H]1C [(6S,11R)-3-Cyclopropylmethyl-6,11-dimethyl-1,2,3,4,5,6-hexahydro-2,6-methano-benzo[d]azocine-8-carboxylic acid methylamide] yielded a Ki of 63 nM.
Compound C[C@H]1C2Cc3ccc(C(=O)O)cc3[C@@]1(C)CCN2CC1CC1 [(6S,11R)-3-Cyclopropylmethyl-6,11-dimethyl-1,2,3,4,5,6-hexahydro-2,6-methano-benzo[d]azocine-8-carboxylic acid] has a Ki of 320 nM.
